Experimental data published in ChEMBL document CHEMBL4190235, “Polysubstituted 2-aminoimidazoles as anti-biofilm and antiproliferative agents: Discovery of potent lead” (Eur J Med Chem, 2017).
Activity calls are given as the source filed them. The calls are words filed in the database; no cut-off is given here.

Legend:
Staphylococcus aureus [1] = assay: Inhibition of planktonic growth of Staphylococcus aureus SH1000; type: organism-based
Staphylococcus aureus [2] = assay: Antibiofilm activity against Staphylococcus aureus SH1000 after 48 hrs by crystal violet staining based method; type: functional
Salmonella typhimurium [3] = assay: Antibiofilm activity against Salmonella typhimurium ATCC 14028 after 24 hrs by crystal violet staining based method; type: functional, Salmonella enterica subsp. enterica serovar Typhimurium
Salmonella typhimurium [4] = assay: Inhibition of planktonic growth of Salmonella typhimurium ATCC 14028; type: organism-based, Salmonella enterica subsp. enterica serovar Typhimurium; details: Salmonella enterica
Pseudomonas aeruginosa [5] = assay: Antibiofilm activity against Pseudomonas aeruginosa PA14 after 24 hrs by crystal violet staining based method; type: functional
Pseudomonas aeruginosa [6] = assay: Inhibition of planktonic growth of Pseudomonas aeruginosa PA14 cells; type: organism-based
A-375 [7] = assay: Antiproliferative activity against human A375 cells after 48 hrs by MTT assay; type: functional, cell-based; details: A-375, 48 h
MIA PaCa-2 [8] = assay: Antiproliferative activity against human MIAPaCa2 cells after 48 hrs by MTT assay; type: functional, cell-based; details: MIA PaCa-2, 48 h
MIA PaCa-2 [9] = assay: Cell cycle arrest in human MIAPaCa2 cells assessed as accumulation at S phase at IC50 concentration after 48 hrs by propidium iodide staining based flow cytometry (reference value: 17.29 +/- 1.8%); type: functional
A-375 [10] = assay: Cell cycle arrest in human A375 cells assessed as accumulation at G2/M phase at IC50 concentration after 48 hrs by propidium iodide staining based flow cytometry (reference value: 8.18 +/- 2.2%); type: functional
MIA PaCa-2 [11] = assay: Cell cycle arrest in human MIAPaCa2 cells assessed as accumulation at subG1 phase at IC50 concentration after 48 hrs by propidium iodide staining based flow cytometry (reference value: 1.53 +/- 0.4%); type: functional
A-375 [12] = assay: Cell cycle arrest in human A375 cells assessed as accumulation at S phase at IC50 concentration after 48 hrs by propidium iodide staining based flow cytometry (reference value: 30.48 +/- 1.4%); type: functional
MIA PaCa-2 [13] = assay: Cell cycle arrest in human MIAPaCa2 cells assessed as accumulation at G2/M phase at IC50 concentration after 48 hrs by propidium iodide staining based flow cytometry (reference value: 16.66 +/- 0.8%); type: functional
A-375 [14] = assay: Cell cycle arrest in human A375 cells assessed as accumulation at G0/G1 phase at IC50 concentration after 48 hrs by propidium iodide staining based flow cytometry (reference value: 64.18 +/- 2.6%); type: functional
MIA PaCa-2 [15] = assay: Antiproliferative activity against human MIAPaCa2 cells assessed as reduction in colony forming ability at IC50 concentration after 10 to 14 days by crystal violet-staining based assay; type: functional, cell-based
MIA PaCa-2 [16] = assay: Cytotoxicity against human MIAPaCa2 cells assessed as reduction in cell viability at IC50 concentration after 24 hrs by calcein AM-dye based assay; type: functional
A-375 [17] = assay: Cell cycle arrest in human A375 cells assessed as accumulation at subG1 phase at IC50 concentration after 48 hrs by propidium iodide staining based flow cytometry (reference value: 1.1 +/- 0.4%); type: functional
A-375 [18] = assay: Antiproliferative activity against human A375 cells assessed as reduction in colony forming ability at IC50 concentration after 10 to 14 days by crystal violet-staining based assay; type: functional, cell-based
MIA PaCa-2 [19] = assay: Cell cycle arrest in human MIAPaCa2 cells assessed as accumulation at G0/G1 phase at IC50 concentration after 48 hrs by propidium iodide staining based flow cytometry (reference value: 66.05 +/- 2.2%); type: functional
A-375 [20] = assay: Cytotoxicity against human A375 cells assessed as reduction in cell viability at IC50 concentration after 24 hrs by calcein AM-dye based assay; type: functional

Compound | IC50 (A-375 [7]) | IC50 (MIA PaCa-2 [8]) | IC50 (Staphylococcus aureus [1]) | MBIC50 (Staphylococcus aureus [2]) | MBIC50 (Salmonella typhimurium [3]) | IC50 (Salmonella typhimurium [4]) | MBIC50 (Pseudomonas aeruginosa [5]) | IC50 (Pseudomonas aeruginosa [6]) | Activity (MIA PaCa-2 [9]) | Activity (A-375 [10]) | Activity (MIA PaCa-2 [11]) | Activity (A-375 [12]) | Activity (MIA PaCa-2 [13]) | Activity (A-375 [14]) | Activity (MIA PaCa-2 [15]) | Activity (MIA PaCa-2 [16]) | Activity (A-375 [17]) | Activity (A-375 [18]) | Activity (MIA PaCa-2 [19]) | Activity (A-375 [20])
O=c1cc(-c2ccccc2)oc2cc(O)c(O)c(O)c12 [BAICALEIN] | – | – | > 400 µM | 77.5 µM | >400 µM | > 400 µM | >400 µM | > 400 µM | – | – | – | – | – | – | – | – | – | – | – | –
CC(C)(C)c1ccc(Cc2nc(N)n(CC(=O)Nc3ccc([N+](=O)[O-])cc3)c2-c2ccccc2Br)cc1 | – | – | > 400 µM | >400 µM | >400 µM | > 400 µM | >400 µM | > 400 µM | – | – | – | – | – | – | – | – | – | – | – | –
COc1ccc(NC(=O)Cn2c(N)nc(Cc3ccc(C(C)(C)C)cc3)c2-c2ccccc2Br)cc1 | – | – | 37.2 µM | 11.5 µM | 231.2 µM | > 400 µM | >400 µM | > 400 µM | – | – | – | – | – | – | – | – | – | – | – | –
COc1ccc(Cc2nc(N)n(CC(=O)Nc3ccc(C)cc3)c2-c2ccccc2Br)cc1 | 2400 nM | 5.2 µM | 16.1 µM | 8.2 µM | 6.3 µM | 50.5 µM | 8.9 µM | 24.6 µM | – | – | – | – | – | – | – | – | – | – | – | –
Nc1nc(Cc2ccccc2)c(-c2ccccc2Br)n1CC(=O)NCc1ccccc1 | – | – | 55.7 µM | 41.5 µM | 38.8 µM | > 400 µM | 382.1 µM | 55.7 µM | – | – | – | – | – | – | – | – | – | – | – | –
O=C(N/N=C/c1ccc([N+](=O)[O-])o1)c1ccc(O)cc1 [NIFUROXAZIDE] | – | – | > 400 µM | >400 µM | >400 µM | > 400 µM | >400 µM | > 400 µM | – | – | – | – | – | – | – | – | – | – | – | –
CC(=O)O[C@H]1C(=O)[C@@]2(C)[C@H]([C@H](OC(=O)c3ccccc3)[C@]3(O)C[C@H](OC(=O)[C@H](O)[C@@H](NC(=O)c4ccccc4)c4ccccc4)C(C)=C1C3(C)C)[C@]1(OC(C)=O)CO[C@@H]1C[C@@H]2O [PACLITAXEL] | 700 nM | 2.5 µM | – | – | – | – | – | – | – | – | – | – | – | – | – | – | – | – | – | –

The next lines start with results.

IC50 (A-375 [7]) | IC50 (MIA PaCa-2 [8]) | Compound | IC50 (Staphylococcus aureus [1]) | MBIC50 (Staphylococcus aureus [2]) | MBIC50 (Salmonella typhimurium [3]) | IC50 (Salmonella typhimurium [4]) | MBIC50 (Pseudomonas aeruginosa [5]) | IC50 (Pseudomonas aeruginosa [6]) | Activity (MIA PaCa-2 [9]) | Activity (A-375 [10]) | Activity (MIA PaCa-2 [11]) | Activity (A-375 [12]) | Activity (MIA PaCa-2 [13]) | Activity (A-375 [14]) | Activity (MIA PaCa-2 [15]) | Activity (MIA PaCa-2 [16]) | Activity (A-375 [17]) | Activity (A-375 [18]) | Activity (MIA PaCa-2 [19]) | Activity (A-375 [20])
2500 nM | 9.2 µM | Cc1ccc(Cc2nc(N)n(CC(=O)Nc3ccccc3)c2-c2ccccc2Br)cc1 | > 400 µM | >400 µM | >400 µM | > 400 µM | >400 µM | > 400 µM | – | – | – | – | – | – | – | – | – | – | – | –
5700 nM | 8.6 µM | CCCCCCc1nc(N)n(CC(=O)Nc2ccccc2)c1-c1ccccc1Br | 16.3 µM | 6.6 µM | 35.7 µM | > 400 µM | 50.7 µM | 119 µM | – | – | – | – | – | – | – | – | – | – | – | –
5100 nM | 6.5 µM | CCCCCCc1nc(N)n(CC(=O)Nc2ccc(C)cc2)c1-c1ccccc1Br | 23.1 µM | 12.6 µM | 21.8 µM | > 400 µM | 29.5 µM | 49.6 µM | – | – | – | – | – | – | – | – | – | – | – | –
5200 nM | 5.7 µM | Nc1nc(Cc2ccccc2)c(-c2ccccc2Br)n1CC(=O)Nc1ccccc1 | > 400 µM | >400 µM | >400 µM | > 400 µM | >400 µM | > 400 µM | – | – | – | – | – | – | – | – | – | – | – | –
24300 nM | 61.4 µM | Nc1nc(CC2CCCC2)c(-c2ccccc2Br)n1CC(=O)Nc1ccccc1 | > 400 µM | >400 µM | >400 µM | > 400 µM | >400 µM | > 400 µM | – | – | – | – | – | – | – | – | – | – | – | –
1300 nM | 2.9 µM | Cc1ccc(Cc2nc(N)n(CC(=O)Nc3ccc(C)cc3)c2-c2ccccc2Br)cc1 | 5.8 µM | 5.5 µM | 3.6 µM | > 400 µM | 191 µM | 10.9 µM | 17.04% | 66.85% | 16.33% | 26.59% | 48.99% | 36.34% | Active | Active | 24.71% | Active | 36.39% | Active
2600 nM | 3.5 µM | Cc1ccc(NC(=O)Cn2c(N)nc(CC3CC3)c2-c2ccccc2Br)cc1 | 30.6 µM | 21.9 µM | 21.3 µM | 24.5 µM | 16 µM | 23.6 µM | – | – | – | – | – | – | – | – | – | – | – | –
